We go through seven molecules from patent publication US8586357B2, “Markers of definitive endoderm” (ViaCyte, Inc., priority 2003, dated 2013).

Assay [1] has as its system definitive endoderm cells vs hESCs. In words: Gene chip analysis (Affymetrix U133 Plus 2.0) of purified definitive endoderm compared to hESCs. The assay is classed as cell-based, human. On the procedure:
In the following experiment, RNA was isolated from purified definitive endoderm and human embryonic stem cell populations. Gene expression was then analyzed by gene chip analysis of the RNA from each purified population. Q-PCR was also performed to further investigate the potential of genes expressed in definitive endoderm, but not in embryonic stem cells, as a marker for definitive endoderm. Human embryonic stem cells (hESCs) were maintained in DMEM/F12 media supplemented with 20% KnockOut Serum Replacement, 4 ng/mL recombinant human basic fibroblast growth factor (bFGF), 0.1 mM 2-mercaptoethanol, L-glutamine, non-essential amino acids and penicillin/streptomycin. hESCs were differentiated to definitive endoderm by culturing for 5 days in RPMI media supplemented with 100 ng/mL of recombinant human activin A, fetal bovine serum (FBS), and penicillin/streptomycin. The concentration of FBS was varied each day as follows: 0.1% (first day), 0.2% (second day), 2% (days 3-5). Cells were isolated by fluorescence activated cell sorting (FACS) in order to obtain purified populations of hESCs and definitive endoderm for gene expression analysis. […] Cells were dissociated using trypsin/EDTA (Invitrogen, cat#25300-054), washed in phosphate buffered saline (PBS) containing 2% human serum and resuspended in 100% human serum on ice for 10 minutes to block non-specific binding. Staining was carried out for 30 minutes on ice by adding 200 uL of phycoerythrin-conjugated antibody to 5×10^6 cells in 800 uL human serum. Cells were washed twice with 8 mL of PBS buffer and resuspended in 1 mL of the same. FACS isolation was carried out by the core facility of The Scripps Research Institute using a FACS Vantage (BD Biosciences). Cells were collected directly into RLT lysis buffer and RNA was isolated by RNeasy according to the manufacturers instructions (Qiagen). Purified RNA was submitted in duplicate to Expression Analysis (Durham, N.C.) for generation of the expression profile data using the Affymetrix platform and U133 Plus 2.0 high-density oligonucleotide arrays. Data presented is a group comparison that identifies genes differentially expressed between the two populations, hESCs and definitive endoderm. […] The “Gene_Symbol” column refers to the unique name given to the gene by the HUGO Gene Nomenclature Committee. The “Raw Fold Change” column refers to the fold difference in signal for each gene in definitive endoderm compared to hESCs. The “Unigene,” “LocusLink,” and “OMIM” columns refer to identifiers that are descriptive and functional annotations derived from current National Center for Biotechnology Information (NCBI) releases of the UniGene, LocusLink, OMIM, and HomoloGene publicly available databases. […]

In assay [2] the test system is definitive endoderm cells. In words: Maintenance and expansion of definitive endoderm cells in culture in the presence of activin. The format is cell-based, human. The text has this:
Definitive endoderm cells produced by methods described herein have been maintained and expanded in culture in the presence of activin for greater than 50 days without appreciable differentiation. In such cases, SOX17, CXCR4, MIXL1, GATA4, HNF3β expression is maintained over the culture period. Additionally, TM, SPARC, OCT4, AFP, SOX7, ZIC1 and BRACH were not detected in these cultures. It is likely that such cells can be maintained and expanded in culture for substantially longer than 50 days without appreciable differentiation.

Assay [3] relates to human definitive endoderm cells. The assay is described as follows: Differentiation factor screening: Q-PCR of albumin, PROX1 and TITF1. The assay is classed as cell-based. On the procedure:
To exemplify the differentiation factor screening methods described herein, populations of human definitive endoderm cells produced using the methods described herein were separately provided with several candidate differentiation factors while determining the normalized expression levels of certain marker gene products at various time points.
Human definitive endoderm cells were produced as described in the foregoing Examples. In brief, hESCs cells were grown in the presence of 100 ng/ml activin A in low serum RPMI medium for four days, wherein the fetal bovine serum (FBS) concentration on day 1 was 0%, on day 2 was 0.2% and on days 3-4 was 2%. After formation of definitive endoderm, beginning on day 5 and ending on day 10, cell populations maintained in individual plates in RPMI containing 0.2% FBS were treated with one of: Wnt3A at 20 ng/ml, FGF2 at 5 ng/ml or FGF2 at 100 ng/ml. The expression of marker gene products for albumin, PROX1 and TITF1 were quantitated using Q-PCR.

Another assay concerns hESCs (hESCyt-25). The assay is described as follows: Q-PCR gene expression assay of marker genes in differentiating hESCs. The assay is classed as cell-based, human. Conditions: Wnt3a added to activin A and activin B treated cultures; FIG. 23. On the procedure:
In the following experiments, real-time quantitative RT-PCR (Q-PCR) was the primary assay used for screening the effects of various treatments on HESC differentiation. In particular, real-time measurements of gene expression were analyzed for multiple marker genes at multiple time points by Q-PCR. Marker genes characteristic of the desired as well as undesired cell types were evaluated to gain a better understanding of the overall dynamics of the cellular populations. The strength of Q-PCR analysis includes its extreme sensitivity and relative ease of developing the necessary markers, as the genome sequence is readily available. Furthermore, the extremely high sensitivity of Q-PCR permits detection of gene expression from a relatively small number of cells within a much larger population. In addition, the ability to detect very low levels of gene expression provides indications for “differentiation bias” within the population. The bias towards a particular differentiation pathway, prior to the overt differentiation of those cellular phenotypes, is unrecognizable using immunocytochemical techniques. […] Additionally, Q-PCR provides a mechanism by which to evaluate the success of a differentiation protocol in a quantitative format at semi-high throughput scales of analysis.
The approach taken here was to perform relative quantitation using SYBR Green chemistry on a Rotor Gene 3000 instrument (Corbett Research) and a two-step RT-PCR format. Such an approach allowed for the banking of cDNA samples for analysis of additional marker genes in the future, thus avoiding variability in the reverse transcription efficiency between samples.
Primers were designed to lie over exon-exon boundaries or span introns of at least 800 bp when possible, as this has been empirically determined to eliminate amplification from contaminating genomic DNA.
We routinely used Q-PCR to measure the gene expression of multiple markers of target and non-target cell types in order to provide a broad profile description of gene expression in cell samples. The markers relevant for the early phases of hESC differentiation (specifically ectoderm, mesoderm, definitive endoderm and extra-embryonic endoderm) and for which validated primer sets are available are provided below in Table 1. […] This is an important fact since the hESCs were often grown on mouse feeder layers. Most typically, triplicate samples were taken for each condition and independently analyzed in duplicate to assess the biological variability associated with each quantitative determination.
To generate PCR template, total RNA was isolated using RNeasy (Qiagen) and quantitated using RiboGreen (Molecular Probes). Reverse transcription from 350-500 ng of total RNA was carried out using the iScript reverse transcriptase kit (BioRad), which contains a mix of oligo-dT and random primers. Each 20 μL reaction was subsequently diluted up to 100 μL total volume and 3 μL was used in each 10 μL Q-PCR reaction containing 400 nM forward and reverse primers and 5 μL 2×SYBR Green master mix (Qiagen). Two step cycling parameters were used employing a 5 second denature at 85-94° C. (specifically selected according to the melting temp of the amplicon for each primer set) followed by a 45 second anneal/extend at 60° C. Fluorescence data was collected during the last 15 seconds of each extension phase. A three point, 10-fold dilution series was used to generate the standard curve for each run and cycle thresholds (Ct's) were converted to quantitative values based on this standard curve. The quantitated values for each sample were normalized to housekeeping gene performance and then average and standard deviations were calculated for triplicate samples. At the conclusion of PCR cycling, a melt curve analysis was performed to ascertain the specificity of the reaction. A single specific product was indicated by a single peak at the Tm appropriate for that PCR amplicon. […]

The mark [4] stands for this setting: fold difference in signal for each gene in definitive endoderm (CXCR4-purified, 5 days 100 ng/mL activin A) compared to hESCs (SSEA4-purified), Affymetrix U133 Plus 2.0.
[5] abbreviates: fold difference in gene chip signal (Affymetrix U133 Plus 2.0) for each gene in CXCR4-purified definitive endoderm (5 days, 100 ng/mL activin A) compared to SSEA4-purified hESCs.

As to NPPB, the “Raw Fold Change” value in assay [1] (setting [4]) is recorded as 35.43 fold.

With BMP2, the “Raw Fold Change” value in assay [1] (setting [5]) is recorded as 7.76 fold.

On to activin, for which, in assay [2], the “time definitive endoderm cells maintained and expanded in culture without appreciable differentiation” value is “greater than 50 days”.

As for APOA1, in assay [1] (setting [5]), the “Raw Fold Change” value came out at 15.05 fold.

On to “FGF2: growth factor; candidate differentiation factor”, for which the “expression of the TITF1 marker gene as compared to definitive endoderm cells on day 4” value in assay [3] (100 ng/ml FGF2, days 7, 9 and 10, FIG. 36C) is “substantially increased”. Also, the “expression of the TITF1 gene product as compared to untreated definitive endoderm” value in assay [3] (FGF2 at 5 ng/ml, FIG. 36C) is reported as “very little effect”. Also, the “expression of the albumin gene product as compared to definitive endoderm cells on day 4” value in assay [3] (FGF2 at 5 ng/ml, days 9 and 10, FIG. 36A) was “substantially increased”; in assay [3] (FGF2 at 100 ng/ml, days 9 and 10, FIG. 36A), “not increased”.

In the case of NODAL, the “Raw Fold Change” value in assay [1] (setting [4]) turned out to be 7.89 fold.

B1: Wnt3A: Wnt family growth factor; candidate differentiation factor (protein, UniProt P56704 19-352, looked up)
Protein Wnt-3a: SYPIWWSLAVGPQYSSLGSQPILCASIPGLVPKQLRFCRNYVEIMPSVAEGIKIGIQECQHQFRGRRWNCTTVHDSLAIFGPVLDKATRESAFVHAIASAGVAFAVTRSCAEGTAAICGCSSRHQGSPGKGWKWGGCSEDIEFGGMVSREFADARENRPDARSAMNRHNNEAGRQAIASHMHLKCKCHGLSGSCEVKTCWWSQPDFRAIGDFLKDKYDSASEMVVEKHRESRGWVETLRPRYTYFKVPTERDLVYYEASPNFCEPNPETGSFGTRDRTCNVSSHGIDGCDLLCCGRGHNARAERRREKCRCVFHWCCYVSCQECTRVYDVHTCK
Take B1: the “SOX17 gene expression over that of activins alone” value in the assay with hESCs (hESCyt-25) was “increases”. The “expression of the albumin gene product as compared to untreated definitive endoderm cells” value in assay [3] (20 ng/ml Wnt3A, days 9 and 10, FIG. 36A) is on record as “increased”.
